{
  "source": "patent US7977304B2",
  "about": "“FK 228 derivates as HDAC inhibitors” (University of Southampton Highfield, priority 2005, dated 2011)",
  "key": {"[1]": {"tested_on": "TNFα production from peripheral blood mononuclear cells (PBMCs)", "assay": "Activity Assay 7: LPS-induced TNFα secretion from PBMCs (QUANTIKINE immunoassay)", "assay_type": "cell-based", "settings": "Homo sapiens, PBMC; Concentration 200 nM", "procedure": "We analysed the ability of compounds to inhibit the production of TNFα from peripheral blood mononuclear cells (PBMCs). TNF-α immunoassays were carried out using the QUANTIKINE® Human TNF-α assay kit (R&D systems, Abingdon UK) according to the manufacturer's instructions. […] Compounds were added 1 hour later in volumes of 100 μl at 6× final concentration. Five hours later lipopolysaccharide (LSP, Sigma, Poole, UK) was added in a volume of 10 μl at 60× final concentration. Plates were mixed and left overnight at 37° C. 5% C02. Plates were centrifuged and cell supernatant was transferred to a new plate. The QUANTIKINE® assay reagents and standards were prepared according to the manufacturer instructions. The QUANTIKINE® assay plate was prepared by adding 50 μl of assay diluent RD1F into each well. This was followed by 200 μl of standard or 100 μl of calibrator diluent plus 100 μl cell supernatant; this was incubated for 2 hours at room temperature (RT). The plate was washed using wash buffer 4 times. After the final wash the plate was tapped on clean paper towel to remove all residual buffer. 200 μl of TNF-α conjugate was added to each well and incubated for 1 hour at RT. The plate was then washed as before. The required amount of substrate solution was prepared by adding equal volumes of colour reagents A and B, protecting from light, 200 μl of this mix was added to each well and incubated for 20 mins at RT, protected from light. 50 μl of stop solution was added to each well in the same order as the substrate solution and the plate was read on a Biorad 680 96 well plate reader (Bio-Rad, Hemel Hempstead, UK) at 450 nm with λ correction at 570 nm. TNF-α levels were determined for mean values of duplicate samples using absorbance in nm, calibration zero values were subtracted from all results to correct for the addition of calibrator diluent in the assay."}, "[2]": {"tested_on": "normal human dermal fibroblasts (NHDF)", "assay": "Activity Assay 1: CyQuant cell proliferation assay, NHDF", "assay_type": "cell-based", "settings": "144 h, read-out: mean IC50 for growth inhibition (±SD), NHDF", "procedure": "Method; Cell proliferation assays were performed using the CyQuant™ assay system (Molecular Probes, Inc. USA) according to the manufacturer's instructions. This system utilises a proprietary green fluorescent dye which undergoes strong fluorescent enhancement on binding cellular nucleic acids, to allow determination of cell number with a linear detection range between 50 to 250,000 cells. Estrogen receptor positive MCF7 breast cancer cells (ECAAC) and NHDF cells (Cambrex, UK) were plated in 96 well plates, at a density of 1000 cells in 100 μl of cell culture medium per well. Compounds were added a minimum of 5 hours later, in serial dilutions in cell culture medium, in 100 μl volumes at 2× final concentration. Six days later cell culture medium was removed by inversion of the plate onto blotting paper and cells were gently washed once with 200 μl PBS. […] Fluorescence was then measured for each well using a Cytofluor II Fluoresence Multiwell Plate Reader and CytoFluor II software with filters at 480 nm for excitation and 520 nm for emission maxima. Cell proliferation was determined for mean values of duplicate samples as percentages relative to untreated cell samples (=100%). […]\nMCF7 and NHDF were incubated with the indicated concentrations of compounds. After 6 days cell growth relative to untreated cells (=100%) was determined using the CyQuant™ assay. […]"}, "[3]": {"tested_on": "histone acetylation in MCF7 breast cancer cells", "assay": "Activity Assay 4: histone acetylation by immunoblotting, MCF7", "assay_type": "cell-based", "settings": "MCF7, 24 hours", "procedure": "Method; Cardiac myocytes were prepared as described in Chembiochem. 2005 January; 6(1):162-70 and incubated with the indicated concentrations of compound 001 for 24 hours. MCF7 cells were incubated with the indicated concentrations of compound 001 for 24 hours. Expression of total histone H4 acetylation, or specific acetylation of Histone H4-K8 or Histone H3-K9 was analysed by Western blotting, as previously described (Brimmell et al. Br J Cancer. 1999 November; 81(6):1042-51) using antibodies from Upstate Biotech.\n(A) MCF7 cells were incubated with compound 001 for 24 hours. Histone H4 acetylation was measured by immunoblotting. (B) Cardiac myocytes were incubated with indicated compound 001 for 24 hours. Histone H4 acetylation was measured by immunoblotting. (C) MCF7 cells were incubated with compound 001 for 24 hours. Histone H3-K9 and Histone H4-K8 acetylation was measured by immunoblotting"}, "[4]": {"tested_on": "PC3 prostate cancer cells", "assay": "Activity Assay 6: CyQuant cell growth inhibition, PC3", "assay_type": "cell-based", "settings": "Homo sapiens, 96 h, PC3, 4 days", "procedure": "(§1) We analysed the ability of compounds to inhibit the in vitro growth of human cancer cells. Cell proliferation assays were performed using the CyQuant™ assay system (Molecular Probes, Inc. USA) according to the manufacturer's instructions. MCF7 breast, A2780 ovarian and PC3 and LNCAP prostate cancer cells were plated in 96 well plates, at a density of 1000 cells for MCF7 cells or 5000 cells for M780/PC3/LNCAP cells, in 100 μl of cell culture medium per well. Compounds were added a minimum of 5 hours later, in serial dilutions in cell culture medium, in 100 μl volumes at 2× final concentration. Cell culture medium was removed after 4 (A2780, PC3 or LNCAP cells) or 6 days (MCF7 cells) by inversion of the plate onto blotting paper and cells were gently washed once with 200 μl PBS. Plates were frozen immediately for a minimum of one hour at −80° C. and then thawed. 200 μl of 1× CyQuant cell lysis buffer supplemented with dye, made according to the manufacturer's instruction, was added immediately to each well and incubated at room temperature for 3-5 minutes. Fluorescence was then measured for each well using a Cytofluor II Fluoresence Multiwell Plate Reader and CytoFluor II software with filters at 480 nm for excitation and 520 nm for emission maxima. Cell proliferation was determined for mean values of duplicate samples as percentages relative to untreated cell samples (=100%). Growth inhibition curves were used to derive IC50 values."}, "[5]": {"tested_on": "MCF7 breast cancer cells", "assay": "Activity Assay 6: CyQuant cell growth inhibition, MCF7", "assay_type": "cell-based", "settings": "Homo sapiens, 144 h, MCF7, 6 days", "procedure": "as §1"}, "[6]": {"tested_on": "A2780 ovarian cancer cells", "assay": "Activity Assay 6: CyQuant cell growth inhibition, A2780", "assay_type": "cell-based", "settings": "Homo sapiens, 96 h, A2780, 4 days", "procedure": "as §1"}, "[7]": {"tested_on": "inflammation in Balb/c mice", "assay": "Activity Assay 8: oxazolone-induced ear inflammation in mice", "assay_type": "in vivo", "settings": "24 hours; for Change in ear weight: Mean ± SD, 8 animals per group", "procedure": "We analysed the ability of compound 9A (the compound of formula (2) on page 7) to inhibit inflammation in mice. Balb/c mice were sensitised by application of 5% (w/v) oxazolone to abdominal shaved skin. After 7 days mice were challenged by topical application of 3% (w/v) oxalazone to the left ear and acetone to the right ear. After 30 minutes test compounds dissolved in acetone were applied to the ears (dorsal and ventral surface)."}},
  "data": [
    {"smiles": "CC(C)[C@H]1NC(=O)[C@H]2CSSCC/C=C/[C@H](CC(=O)N[C@H](C)C(=O)N2)OC(=O)CNC1=O", "note": "[Compound 9A, (E)-(1S,7R,10S,21R)-7-isopropyl-21-methyl-2-oxa-12,13-dithia-5,8,20,23-tetraaza-bicyclo[8.7.6]tricos-16-ene-3,6,9,19,22-pentaone]", "values": [
      {"measurement": "inhibition at 0.2 µM", "setting": "[1]", "result": 69, "unit": "%"},
      {"measurement": "IC50", "setting": "[2]", "result": "420 ± 42", "unit": "nM"},
      {"measurement": "Histone H3-K9 and Histone H4-K8 acetylation, MCF7 cells", "setting": "[3]", "result": "specific Histone H3-K9 and Histone H4-K8 acetylation"},
      {"measurement": "Histone H4 acetylation, MCF7 cells", "setting": "[3]", "result": "induces the accumulation of acetylated histone H4"},
      {"measurement": "IC50", "setting": "[4]", "result": 50, "unit": "nM"},
      {"measurement": "IC50", "setting": "[5]", "result": 36.6, "unit": "nM"},
      {"measurement": "IC50", "setting": "[6]", "result": 130, "unit": "nM"},
      {"measurement": "% inhibition compared to vehicle", "setting": "[7]; 0.1% topical in acetone", "result": 33.3, "unit": "%"},
      {"measurement": "Change in ear weight", "setting": "[7]; 0.1% topical in acetone", "result": "42.4 ± 4.3", "unit": "mg"},
      {"measurement": "% inhibition compared to vehicle", "setting": "[7]; 1% topical in acetone", "result": 63.0, "unit": "%"},
      {"measurement": "Change in ear weight", "setting": "[7]; 1% topical in acetone", "result": "23.5 ± 3.2", "unit": "mg"}
    ]}
  ]
}
